From ChEMBL document CHEMBL5046257, “Synthesis and Evaluation of Bakuchiol Derivatives as Potent Anti-inflammatory Agents in Vitro and in Vivo” (J Nat Prod, 2022)
Active and inactive are the calls of the source. No cut-off for these calls is given here.

Legend:
[1] = Cytotoxicity against mouse RAW 264.7 cells assessed as decreased cell viability measured after 24 hrs by MTT assay; assay type: toxicity, cell-based, RAW264.7
RAW264.7 [2] = test: Antiinflammatory activity in mouse RAW 264.7 cells assessed as inhibition of LPS-induced IL-6 production at 5 to 10 uM for 1 hrs followed by LPS stimulation for 23 hrs by ELISA; assay type: functional, cell-based; conditions: dose 5-10 µM, time 24.0 hrs
RAW264.7 [3] = test: Antiinflammatory activity in mouse RAW264.7 cells assessed as downregulation of LPS-induced ERK phosphorylation at 5 to 10 uM for 1 hrs followed by LPS stimulation for 23 hrs by Western blot analysis; assay type: functional, cell-based; conditions: dose 5-10 µM, time 24.0 hrs
RAW264.7 [4] = test: Antiinflammatory activity in mouse RAW 264.7 cells assessed as inhibition of LPS-induced TNF-alpha production at 5 to 10 uM for 1 hrs followed by LPS stimulation for 23 hrs by ELISA; assay type: functional, cell-based; conditions: dose 5-10 µM, time 24.0 hrs
RAW264.7 [5] = test: Antiinflammatory activity in mouse RAW 264.7 cells assessed as inhibition of LPS-induced NO production at 20 uM for 1 hrs pretreatment followed by LPS stimulation for 23 hrs by Griess reagent assay; assay type: functional, cell-based; conditions: time 24.0 hrs
Danio rerio [6] = species: Danio rerio; test: Antiinflammatory activity in zebrafish assessed as inhibition of LPS-induced ROS production at 2.5 to 5 uM for 24 hrs by laser confocal microscope; assay type: functional, organism-based; conditions: dose 2.5-5 µM
RAW264.7 [7] = test: Antiinflammatory activity against mouse RAW264.7 cells assessed as inhibition of LPS-induced COX2 expression at 5 to 10 uM for 1 hrs followed by LPS stimulation for 23 hrs by western blot analysis; assay type: functional, cell-based; conditions: dose 5-10 µM, time 24.0 hrs
RAW264.7 [8] = test: Antiinflammatory activity in mouse RAW264.7 cells assessed as inhibition of LPS-induced ROS production at 5 to 10 uM for 1 hrs followed by LPS stimulation for 23 hrs by DCFH-DA staining based fluorescence assay; assay type: functional, cell-based; conditions: dose 5-10 µM, time 24.0 hrs
RAW264.7 [9] = test: Antiinflammatory activity in mouse RAW 264.7 cells assessed as inhibition of LPS-induced TNF-alpha production at 20 uM for 1 hrs followed by LPS stimulation for 23 hrs by ELISA; assay type: functional, cell-based; conditions: time 24.0 hrs
RAW264.7 [10] = test: Antiinflammatory activity against mouse RAW264.7 cells assessed as inhibition of LPS-induced iNOS expression at 10 uM for 1 hrs followed by LPS stimulation for 23 hrs by western blot analysis; assay type: functional, cell-based; conditions: time 24.0 hrs
RAW264.7 [11] = test: Antiinflammatory activity in mouse RAW264.7 cells assessed as upregulation of LPS-induced HO-1 expression at 5 to 10 uM for 1 hrs followed by LPS stimulation for 23 hrs by Western blot analysis; assay type: functional, cell-based; conditions: dose 5-10 µM, time 24.0 hrs
RAW264.7 [12] = test: Antiinflammatory activity against mouse RAW264.7 cells assessed as inhibition of LPS-induced COX2 expression at 10 uM for 1 hrs followed by LPS stimulation for 23 hrs by western blot analysis; assay type: functional, cell-based; conditions: time 24.0 hrs
Danio rerio [13] = species: Danio rerio; test: Antiinflammatory activity in zebrafish assessed as inhibition of LPS-induced NO production at 2.5 to 5 uM for 24 hrs by laser confocal microscope; assay type: functional, organism-based; conditions: dose 2.5-5 µM
RAW264.7 [14] = test: Antiinflammatory activity in mouse RAW264.7 cells assessed as downregulation of LPS-induced JNK phosphorylation at 5 to 10 uM for 1 hrs followed by LPS stimulation for 23 hrs by Western blot analysis; assay type: functional, cell-based; conditions: dose 5-10 µM, time 24.0 hrs
RAW264.7 [15] = test: Antiinflammatory activity in mouse RAW 264.7 cells assessed as inhibition of LPS-induced IL-6 production at 20 uM for 1 hrs followed by LPS stimulation for 23 hrs by ELISA; assay type: functional, cell-based; conditions: time 24.0 hrs
RAW264.7 [16] = test: Antiinflammatory activity in mouse RAW264.7 cells assessed as downregulation of LPS-induced MAPK phosphorylation at 5 to 10 uM for 1 hrs followed by LPS stimulation for 23 hrs by Western blot analysis; assay type: functional, cell-based; conditions: dose 5-10 µM, time 24.0 hrs
RAW264.7 [17] = test: Antiinflammatory activity in mouse RAW264.7 cells assessed as inhibition of LPS-induced IKKbeta phosphorylation at 5 to 10 uM for 1 hrs followed by LPS stimulation for 23 hrs by Western blot analysis; assay type: functional, cell-based; conditions: dose 5-10 µM, time 24.0 hrs
RAW264.7 [18] = test: Antiinflammatory activity in mouse RAW264.7 cells assessed as upregulation of LPS-induced NRF2 expression at 5 to 10 uM for 1 hrs followed by LPS stimulation for 23 hrs by Western blot analysis; assay type: functional, cell-based; conditions: dose 5-10 µM, time 24.0 hrs
RAW264.7 [19] = test: Antiinflammatory activity against mouse RAW264.7 cells assessed as inhibition of LPS-induced iNOS expression at 5 to 10 uM for 1 hrs followed by LPS stimulation for 23 hrs by western blot analysis; assay type: functional, cell-based; conditions: dose 5-10 µM, time 24.0 hrs
RAW264.7 [20] = test: Antiinflammatory activity in mouse RAW264.7 cells assessed as inhibition of LPS-induced NFkB p65 activation at 5 to 10 uM for 1 hrs followed by LPS stimulation for 23 hrs by Western blot analysis; assay type: functional, cell-based; conditions: dose 5-10 µM, time 24.0 hrs

Work on `C=C[C@@](C)(/C=C/c1ccc(OCc2cn(Cc3ccc(F)cc3)nn2)cc1)CCC=C(C)C` yielded an IC50 at 24 h [1] of 157 µM.
Compound `C=C[C@@](C)(/C=C/c1ccc(OC(=O)c2cn(-c3ccc(F)cc3)nn2)cc1)CCC=C(C)C` has an IC50 at 24 h [1] of 79.9 µM.
`C=C[C@@](C)(/C=C/c1ccc(OCc2cn(-c3ccc(C(F)(F)F)cc3)nn2)cc1)CCC=C(C)C` gave an IC50 at 24 h [1] of 82.1 µM.
With `C=C[C@@](C)(/C=C/c1ccc(OCC(=O)Nc2ccc(F)cc2)cc1)CCC=C(C)C` the IC50 at 24 h [1] was 59.1 µM.
`C=C[C@@](C)(/C=C/c1ccc(OCc2cn(-c3ccccc3)nn2)cc1)CCC=C(C)C` showed an IC50 at 24 h [1] of 172 µM.
Compound `C=C[C@@](C)(/C=C/c1ccc(OC(=O)c2cc3ccccc3[nH]2)cc1)CCC=C(C)C` has an IC50 at 24 h [1] of 108 µM.
In the case of `C=C[C@@](C)(/C=C/c1ccc(OCc2cn(-c3ccc(C)cc3)nn2)cc1)CCC=C(C)C`, the IC50 at 24 h [1] is reported as 86.9 µM.
With `C=C[C@@](C)(/C=C/c1ccc(OCC(=O)Nc2ccc(Cl)cc2)cc1)CCC=C(C)C` the IC50 at 24 h [1] was 50.7 µM.
`C=C[C@@](C)(/C=C/c1ccc(OC(=O)c2cn(-c3ccc(C)cc3)nn2)cc1)CCC=C(C)C` showed an IC50 at 24 h [1] of 37.2 µM.
With `C=C[C@@](C)(/C=C/c1ccc(OC(=O)c2cn(-c3ccc(Cl)cc3)nn2)cc1)CCC=C(C)C` the IC50 at 24 h [1] was 115 µM.
`C=C[C@@](C)(/C=C/c1ccc(OC(=O)c2cc3cc(OC)ccc3[nH]2)cc1)CCC=C(C)C` showed an IC50 at 24 h [1] of 329 µM.
`C=C[C@@](C)(/C=C/c1ccc(OCc2cn(-c3ccc(Cl)cc3)nn2)cc1)CCC=C(C)C` showed an IC50 at 24 h [1] of 47.6 µM.
Compound `C=C[C@@](C)(/C=C/c1ccc(OCC(=O)Nc2ccccc2)cc1)CCC=C(C)C` has an IC50 at 24 h [1] of 63.3 µM.
In the case of `C=C[C@@](C)(/C=C/c1ccc(OC(=O)c2cc3cc(Cl)ccc3[nH]2)cc1)CCC=C(C)C`, the IC50 at 24 h [1] is reported as 110 µM.
`C=C[C@@](C)(/C=C/c1ccc(OCc2cn(-c3ccc(OC)cc3)nn2)cc1)CCC=C(C)C` showed an IC50 at 24 h [1] of 47.4 µM.
Work on `C=C[C@@](C)(/C=C/c1ccc(OCC(=O)NC(c2ccc(F)cc2)P(=O)(OCC)OCC)cc1)CCC=C(C)C` (stereo not given in full) yielded an IC50 at 24 h [1] of 110 µM.
Work on `C=C[C@@](C)(/C=C/c1ccc(OCC(=O)NC(c2ccccc2)P(=O)(OCC)OCC)cc1)CCC=C(C)C` (stereo not given in full) yielded an IC50 at 24 h [1] of 33.4 µM.
In the case of `C=C[C@@](C)(/C=C/c1ccc(OCC(=O)N2CCCCC2)cc1)CCC=C(C)C`, the IC50 at 24 h [1] is reported as 58.6 µM.
`C=C[C@@](C)(/C=C/c1ccc(OC(=O)c2cn(-c3ccc(OC)cc3)nn2)cc1)CCC=C(C)C` showed an IC50 at 24 h [1] of 64.7 µM.
With `C=C[C@@](C)(/C=C/c1ccc(OCC(=O)NC(c2ccc(C)cc2)P(=O)(OCC)OCC)cc1)CCC=C(C)C` (stereo not given in full) the IC50 at 24 h [1] was 209 µM.
For `C=C[C@@](C)(/C=C/c1ccc(OC(=O)c2ccc3ncccc3c2)cc1)CCC=C(C)C`, the IC50 at 24 h [1] was 88 µM.
In the case of `C=C[C@@](C)(/C=C/c1ccc(OC(=O)/C=C/c2ccccc2)cc1)CCC=C(C)C`, the IC50 at 24 h [1] is reported as 157 µM.
For `C=C[C@@](C)(/C=C/c1ccc(O)cc1)CCC=C(C)C` [BAKUCHIOL], the IC50 at 24 h [1] was 97.2 µM.
With `C=C[C@@](C)(/C=C/c1ccc(OCC(=O)Nc2cccc3cccnc23)cc1)CCC=C(C)C` the IC50 at 24 h [1] was 649 µM.
With `C=C[C@@](C)(/C=C/c1ccc(OCc2cn(Cc3ccc(C)cc3)nn2)cc1)CCC=C(C)C` the IC50 at 24 h [1] was 371 µM.
For `C=C[C@@](C)(/C=C/c1ccc(OCC(=O)N2CCCC2)cc1)CCC=C(C)C`, the inhibition (RAW264.7 [2]) was “Dose-Dependent Effect”, the Activity (RAW264.7 [3]) was “Active” and the inhibition (RAW264.7 [4]) was “Dose-Dependent Effect”. For the same compound, the inhibition (RAW264.7 [5]) was “Active”, the inhibition (Danio rerio [6]) was “Dose-Dependent Effect” and the inhibition (RAW264.7 [7]) was “Dose-Dependent Effect”. For the same compound, the inhibition (RAW264.7 [8]) was “Dose-Dependent Effect”, the IC50 at 24 h [1] was 40.5 µM and the inhibition (RAW264.7 [9]) was “Active”. The inhibition (RAW264.7 [10]) was “Active”, the Activity (RAW264.7 [11]) was “Dose-Dependent Effect” and the inhibition (RAW264.7 [12]) was “Active”. The inhibition (Danio rerio [13]) was “Dose-Dependent Effect”, the Activity (RAW264.7 [14]) was “Active” and the inhibition (RAW264.7 [15]) was “Active”. For the same compound, the Activity (RAW264.7 [16]) was “Active”, the inhibition (RAW264.7 [17]) was “Active” and the Activity (RAW264.7 [18]) was “Dose-Dependent Effect”. The inhibition (RAW264.7 [19]) was “Dose-Dependent Effect” and the inhibition (RAW264.7 [20]) was “Active”.
`C=C[C@@](C)(/C=C/c1ccc(OCc2cn(Cc3ccc(OC)cc3)nn2)cc1)CCC=C(C)C` gave an IC50 at 24 h [1] of 273 µM.
`C=C[C@@](C)(/C=C/c1ccc(OCc2cn(-c3ccc(F)cc3)nn2)cc1)CCC=C(C)C` showed an IC50 at 24 h [1] of 233 µM.
`C=C[C@@](C)(/C=C/c1ccc(OCc2cn(Cc3ccc(Cl)cc3)nn2)cc1)CCC=C(C)C` showed an IC50 at 24 h [1] of 327 µM.
In the case of `C=C[C@@](C)(/C=C/c1ccc(OCc2cn(Cc3ccccc3)nn2)cc1)CCC=C(C)C`, the IC50 at 24 h [1] is reported as 480 µM.
With `C=C[C@@](C)(/C=C/c1ccc(OC(=O)c2cn(-c3ccccc3)nn2)cc1)CCC=C(C)C` the IC50 at 24 h [1] was 69.9 µM.
